Drawing on US10526309B2, “Pan-TAM inhibitors and Mer/Axl dual inhibitors” (The University of North Carolina at Chapel Hill, priority 2015, dated 2020), this text covers IC50 for one molecule.

The target of this assay is T1, Tyro3 (Homo sapiens, UniProt Q06418).
T1 sequence (Q06418 41-890): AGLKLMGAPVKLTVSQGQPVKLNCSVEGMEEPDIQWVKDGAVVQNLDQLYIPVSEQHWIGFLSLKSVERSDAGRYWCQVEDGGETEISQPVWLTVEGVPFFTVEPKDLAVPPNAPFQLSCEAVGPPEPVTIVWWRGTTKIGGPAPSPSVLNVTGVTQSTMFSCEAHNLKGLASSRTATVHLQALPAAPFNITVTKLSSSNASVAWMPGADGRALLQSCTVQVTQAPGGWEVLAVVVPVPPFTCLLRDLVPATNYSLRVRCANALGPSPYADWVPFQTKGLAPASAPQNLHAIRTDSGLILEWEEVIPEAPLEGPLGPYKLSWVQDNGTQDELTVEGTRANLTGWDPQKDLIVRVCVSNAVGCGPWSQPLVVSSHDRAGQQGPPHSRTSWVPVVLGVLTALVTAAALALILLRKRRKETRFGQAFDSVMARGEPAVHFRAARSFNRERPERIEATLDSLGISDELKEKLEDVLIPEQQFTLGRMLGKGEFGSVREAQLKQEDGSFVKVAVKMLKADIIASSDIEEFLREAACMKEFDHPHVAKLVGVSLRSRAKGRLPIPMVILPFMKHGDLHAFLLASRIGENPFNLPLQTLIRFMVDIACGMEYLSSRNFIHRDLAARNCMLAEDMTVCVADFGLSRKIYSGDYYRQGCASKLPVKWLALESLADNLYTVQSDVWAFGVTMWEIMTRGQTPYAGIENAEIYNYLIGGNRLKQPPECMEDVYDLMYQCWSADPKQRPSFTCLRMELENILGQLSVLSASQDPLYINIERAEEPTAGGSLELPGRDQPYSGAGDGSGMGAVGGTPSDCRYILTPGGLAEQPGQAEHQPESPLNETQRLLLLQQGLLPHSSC
In words: Tyro3 kinase inhibition IC50. To be noted: read-out: Tyro3 IC50. Type of assay: biochemical.

Like-named read-outs stand apart in the source and are kept apart here.

For orientation: IC50 means the concentration that inhibits the measured activity by half.

For the molecule `O[C@H]1CC[C@H](Nc2nc(Nc3ccccc3)ncc2-c2ccc(CN3CCCC3)cn2)CC1` [UNC4198A], the IC50 by setting is: (Example 6) 0.56 nM; (Table 1) less than 10 nM.
